Assay results: the Bradley open melting point set (2014)

Row | SMILES | melting point [°C]
1 | CCOC(=O)c1ccccc1N [ethyl anthranilate] | 15
2 | c1ccc2cc3cc4ccccc4cc3cc2c1 [naphthacene] | 357
3 | C=C(C)[C@H]1Cc2c(ccc3c2O[C@@H]2COc4cc(OC)c(OC)cc4[C@@H]2C3=O)O1 | 166
4 | CCOC(=O)c1ccccc1C(=O)OCC [diethyl_phthalate] | -3
5 | CC(C)=C/C(C)(C)C [2,4,4-trimethyl-2-pentene] | -106
6 | CC(C(=O)O)c1ccc(-c2ccccc2)c(F)c1 (configuration not stated) [Flurbiprofen] | 110
7 | Brc1ccc(Br)c(Br)c1 [1,2,4-Tribromobenzene] | 44
8 | O=C(O)c1cc(-c2ccc(F)cc2F)ccc1O [Diflunisal] | 216
9 | Cc1ccnc(NS(=O)(=O)c2ccc(N)cc2)n1 [Sulfamerazine] | 236
10 | CCCCCCCCNCCCCCCCC [di-n-octylamine] | 14
11 | Oc1c(F)cc(F)cc1F [2,4,6-trifluorophenol] | 50
12 | CCCCOC(=O)c1ccccc1 [butyl_benzoate] | -12
13 | CN(C)C(=O)Nc1ccccc1 [Fenuron] | 132
14 | O=C(c1ccccc1)c1ccc(O)cc1O [2,4-dihydroxybenzophenone] | 146
15 | O=Cc1cc2c(cc1[N+](=O)[O-])OCO2 [6-nitropiperonal] | 95
16 | Cc1ccc(N)cc1Br [3-bromo-4-methylaniline] | 27
17 | O=S(=O)(Cl)c1ccccc1 [benzenesulfonyl chloride] | 15
18 | CCOP(=S)(OCC)Oc1nc(Cl)n(C(C)C)n1 [isazophos] | 25
19 | C[C@]12CC[C@H]3[C@@H](CCC4=CC(=O)CC[C@@]43C)[C@@H]1CC[C@@H]2O [Testosterone] | 155
20 | Nc1ccccc1[N+](=O)[O-] [2-Nitroaniline] | 72
21 | C=CCCCCCCCCC [1-undecene] | -49

Row | SMILES | melting point [°C]
22 | N#CCc1ccccc1O [o-hydroxy_phenylacetonitrile] | 122
23 | Cc1ccccc1NC=O [N-(2-Methylphenyl)formamide] | 53
24 | Cc1cccc(Cl)c1N [2-chloro-6-methylaniline] | 2
25 | CC(C)O [2-propanol] | -88
26 | ClCC(Cl)(Cl)Cl [1,1,1,2-Tetrachloroethane] | -70
27 | Oc1ccc(Cl)c2cccnc12 [5-chloro-8-hydroxyquinoline] | 123
28 | CCCC(=O)c1cc2cc(Br)ccc2oc1=O [6-bromo-3-butyrylcoumarin] | 164
29 | C1=C(c2ccccc2)Cc2ccccc21 [2-Phenylindene] | 167
30 | O=C(O)C(O)c1cc(F)cc(F)c1 (configuration not stated) [3,5-difluoromandelic acid] | 136
31 | CC1(C)[C@H]2CC[C@]1(C)[C@H](O)C2 [borneol] | 207
32 | O=[N+]([O-])c1ccc(O)cc1 [4-nitrophenol] | 112
33 | NNC(=O)NN [carbohydrazide] | 156
34 | c1ccc2c(c1)ccc1cc3c(ccc4ccccc43)cc12 [dibenzo[a,h]anthracene] | 266
35 | O=C1C[C@@H]2OCC=C3CN4CC[C@]56c7ccccc7N1[C@H]5[C@H]2[C@H]3C[C@H]46 [strychnine] | 280
36 | COc1cc(C#N)ccc1O [4-hydroxy-3-methoxybenzonitrile] | 87
37 | COC1=C(OC)/C(=C\CN=[N+]=[N-])OC1=O [(5E)-5-(2-azidoethylidene)-3,4-dimethoxyfuran-2(5H)-one] | 56
38 | O=C1NC(=O)C(c2ccccc2)(c2ccccc2)N1 [Phenytoin] | 286
39 | COc1ccc(O)cc1 [4-Methoxyphenol] | 56
40 | CCOC(=O)C(C#N)=Cc1ccccc1 [Ethyl 2-Cyano-3-Phenylacrylate] | 49
41 | OCc1ccccc1Br [o-bromobenzyl alcohol] | 81
42 | OB(O)c1cccc(-c2ccccc2)c1 [biphenyl-3-boronic acid] | 209
